Laboratory results from patent US20230027929A1, “MrgprX2 Antagonists and Uses Thereof” (Dermira, Inc., priority 2019, published 2023).

Target: T1, hMrgpMRGPRX2 (Homo sapiens, UniProt Q96LB1)
T1 construct: expressed in transfected cells
T1 sequence (Q96LB1 1-330): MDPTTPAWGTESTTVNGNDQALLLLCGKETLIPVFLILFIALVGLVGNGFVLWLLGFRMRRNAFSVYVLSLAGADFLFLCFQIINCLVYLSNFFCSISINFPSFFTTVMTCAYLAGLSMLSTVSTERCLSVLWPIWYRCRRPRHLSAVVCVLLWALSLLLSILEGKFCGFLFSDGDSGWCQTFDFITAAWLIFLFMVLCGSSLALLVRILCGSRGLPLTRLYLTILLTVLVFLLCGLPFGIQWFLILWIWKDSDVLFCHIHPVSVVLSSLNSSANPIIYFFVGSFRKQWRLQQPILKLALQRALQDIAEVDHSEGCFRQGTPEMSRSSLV
Assay: FLIPR intracellular calcium mobilization, antagonist activity in recombinant hMrgpMRGPRX2 expressing cells
Format: cell-based
Conditions: read-out: Human MrgprX2 Antagonist pIC50 (converted)
Excerpt: Potent and selective hMrgpMRGPRX2 compounds have been generated from compounds identified during a high throughput screening (HTS) campaign and followed up with cycles of structure activity based medicinal chemistry efforts. These compounds were characterized in recombinant hMrgpMRGPRX2 expressing cells for their antagonist activity and the potency was confirmed in the human mast cell line LAD-2, where the target is endogenously expressed. The assays used to determine potencies are functional read-out looking at intracellular calcium mobilization using the FLIPR™ technology. In these FLIPR assays, we test the identified compounds using recombinant cellular systems expressing mouse MrgprB2, mouse MrgprA1, gerbil MrgpMRGPRX2 orthologue, Chinese hamster MrgpMRGPRX2 orthologue and cynomolgus monkey MrgpMRGPRX2 orthologue, respectively for orthologue activity.

For `CC(C)C(=O)Nc1ccc(N2CCCC2)cn1` [Compound E081, 2-methyl-N-(5-pyrrolidin-1-yl-2-pyridyl)propanamide], which IC50 is on record?
The IC50 was 3980 nM.

How did the IC50 turn out when `CC1(C)C(C(=O)Nc2ccc(OCCO)cn2)C1(C)C` [Compound E082, N[5-(2-hydroxyethoxy)pyridin-2-yl]-2,2,3,3-tetramethylcyclopropane-l-carboxamide] was run?
The IC50 was 4370 nM.

With `CC1(C)C(C(=O)Nc2ccc(OC3COC3)cn2)C1(C)C` [Compound E083] as the compound, how does the IC50 read?
Its IC50 is 1070 nM.

How did the IC50 turn out when `CC(C)C(=O)Nc1ccc(OC2CCCC2)cn1` [Compound E084] was run?
Its IC50 is 1580 nM.

`CC1(C)C(C(=O)Nc2ccc(OC3CCOCC3)cn2)C1(C)C` [Compound E085] was tested. Which IC50 did it give?
Its IC50 is 1000 nM.

`CC1(C)C(C(=O)Nc2ccc(OCc3cncc(F)c3)cn2)C1(C)C` [Compound E086] was tested. Which IC50 did it give?
Its IC50 is 204 nM.

`CC1(C)C(C(=O)Nc2ccc(-n3cc(F)cn3)cn2)C1(C)C` [Compound E087] was tested. Which IC50 did it give?
Its IC50 is 43.7 nM.

How did the IC50 turn out when `CC1(C)C(C(=O)Nc2ccc(-n3ccc(C#N)n3)cn2)C1(C)C` [Compound E088] was run?
The IC50 was 28.2 nM.

For `CC1(C)C(C(=O)Nc2ccc(-n3nccn3)cn2)C1(C)C` [Compound E089], which IC50 is on record?
Its IC50 is 15.1 nM.

For `CC1(C)C(C(=O)Nc2ccc(-n3ccnn3)cn2)C1(C)C` [Compound E090], which IC50 is on record?
The IC50 was 3390 nM.

Which IC50 does the source give for `CC1(C)C(C(=O)Nc2ccc(-n3ccc(F)n3)cn2)C1(C)C` [Compound E091] here?
Its IC50 is 8.13 nM.

For `CC1(C)C(C(=O)Nc2ccc(-n3cncn3)cn2)C1(C)C` [Compound E092], which IC50 is on record?
Its IC50 is 8130 nM.

How did the IC50 turn out when `CC1(C)C(C(=O)Nc2ccc(OCC(F)(F)F)cn2)C1(C)C` [Compound E093, 2,2,3,3-tetramethyl-N-[5-(2,2,2-trifluoroethoxy)-2-pyridyl]cyclopropanecarboxamide] was run?
Its IC50 is 31.6 nM.

Which IC50 does the source give for `CC(C)C(=O)Nc1ccc(Nc2ccccc2)cn1` [Compound E094, N-(5-anilino-2-pyridyl)-2-methyl-propanamide] here?
Its IC50 is 3980 nM.

How did the IC50 turn out when `CC(C)C(=O)Nc1ccc(N2CCc3ccccc32)cn1` [Compound E095, N-(5-indolin-1-yl-2-pyridyl)-2-methyl-propanamide] was run?
Its IC50 is 3980 nM.

Which IC50 does the source give for `CC(C)C(=O)Nc1ccc(N(C)c2ccccc2)cn1` [Compound E096, 2-methyl-N-[5-(N-methylanilino)-2-pyridyl]propanamide] here?
The IC50 was 2510 nM.

Which IC50 does the source give for `CC1(C)C(C(=O)Nc2ccc(N3CCCC3)cn2)C1(C)C` [Compound E097] here?
Its IC50 is 2.51 nM.

Which IC50 does the source give for `CC1(C)CC1C(=O)Nc1ccc(N2CCCC2)cn1` (centres unmarked) [Compound E098] here?
Its IC50 is 87.1 nM.

For `CC1(C)C(C(=O)Nc2ccc(N3CCC(F)C3)cn2)C1(C)C` (centres unmarked) [Compound E099], which IC50 is on record?
The IC50 was 25.1 nM.

`CC1(C)C(C(=O)Nc2ccc(N3CCC(F)(F)C3)cn2)C1(C)C` [Compound E100] was tested. Which IC50 did it give?
The IC50 was 34.7 nM.

With `CC1(C)C(C(=O)Nc2ccc(Nc3cncc(F)c3)cn2)C1(C)C` [Compound E101] as the compound, how does the IC50 read?
Its IC50 is 912 nM.

For `CCN(C[C@@H](O)C(F)(F)F)C(=O)Nc1ccc(Oc2ccc(F)c(F)c2)cn1` [Compound E102, 3-[5-(3,4-difluorophenoxy)-2-pyridyl]-1-ethyl-1-[(2R)-3,3,3-trifluoro-2-hydroxy-propyl]urea], which IC50 is on record?
The IC50 was 10.7 nM.

How did the IC50 turn out when `C[C@H](O)CN(C)C(=O)Nc1ccc(Oc2cccc(F)c2)cn1` [Compound E103] was run?
Its IC50 is 1580 nM.

With `CC(C)N(C)C(=O)Nc1ccc(Oc2ccc(F)c(F)c2)cn1` [Compound E104] as the compound, how does the IC50 read?
Its IC50 is 126 nM.

With `O=C(Nc1ccc(Oc2ccc(F)c(F)c2)cn1)N1CCCC1` [Compound E105] as the compound, how does the IC50 read?
The IC50 was 7940 nM.

For `CN(CC(F)(F)F)C(=O)Nc1ccc(Oc2ccc(F)c(F)c2)cn1` [Compound E106], which IC50 is on record?
The IC50 was 316 nM.

For `CC(C)NC(=O)Nc1ccc(Oc2ccc(F)c(F)c2)cn1` [Compound E107], which IC50 is on record?
Its IC50 is 6310 nM.

For `CN(C(=O)Nc1ccc(Oc2ccc(F)c(F)c2)cn1)C1CC1` [Compound E108], which IC50 is on record?
Its IC50 is 631 nM.

How did the IC50 turn out when `CCN(C[C@H](C)O)C(=O)Nc1ccc(Oc2ccc(F)c(F)c2)cn1` [Compound E109] was run?
The IC50 was 363 nM.

For `CCN(C[C@@H](O)C(F)(F)F)C(=O)Nc1ccc(Oc2cncc(F)c2)cn1` [Compound E110], which IC50 is on record?
The IC50 was 5130 nM.

Which IC50 does the source give for `CN(C[C@@H](O)C(F)(F)F)C(=O)Nc1ccc(Oc2ccc(F)c(F)c2)cn1` [Compound E111] here?
The IC50 was 57.5 nM.

How did the IC50 turn out when `CCN(CC(C)(C)O)C(=O)Nc1ccc(Oc2ccc(F)c(F)c2)cn1` [Compound E112] was run?
The IC50 was 155 nM.

With `CN(C[C@H](O)C(F)(F)F)C(=O)Nc1ccc(Oc2ccc(F)c(F)c2)cn1` [Compound E113] as the compound, how does the IC50 read?
The IC50 was 575 nM.

Which IC50 does the source give for `CC(O)CN(CC(F)(F)F)C(=O)Nc1ccc(Oc2ccc(F)c(F)c2)cn1` (centres unmarked) [Compound E114] here?
The IC50 was 1200 nM.

For `CCN(C[C@@H](O)C(F)(F)F)C(=O)Nc1ccc(Oc2ccc(C#N)cc2)cn1` [Compound E115], which IC50 is on record?
The IC50 was 8910 nM.

For `CCN(C[C@@H](O)C(F)(F)F)C(=O)Nc1ccc(Oc2cc(F)cc(C#N)c2)cn1` [Compound E116], which IC50 is on record?
Its IC50 is 1350 nM.

How did the IC50 turn out when `CCN(C[C@@H](O)C(F)(F)F)C(=O)Nc1ccc(Oc2cc(F)cc(F)c2)cn1` [Compound E117] was run?
The IC50 was 2.04 nM.

How did the IC50 turn out when `CCN(C[C@@H](O)C(F)(F)F)C(=O)Nc1ccc(Oc2ccc(F)cc2)cn1` [Compound E118] was run?
The IC50 was 50.1 nM.

How did the IC50 turn out when `CCN(C[C@@H](O)C(F)(F)F)C(=O)Nc1ccc(Oc2cccc(F)c2)cn1` [Compound E119] was run?
The IC50 was 12.3 nM.

With `CCN(C[C@@H](O)C(F)(F)F)C(=O)Nc1ccc(Oc2cccc(F)c2F)cn1` [Compound E120] as the compound, how does the IC50 read?
The IC50 was 3.72 nM.

`Cc1nc(NC(=O)N(C)C[C@@H](O)C(F)(F)F)ccc1Oc1ccc(F)c(F)c1` [Compound E121] was tested. Which IC50 did it give?
The IC50 was 708 nM.

Which IC50 does the source give for `CCN(C[C@@H](O)C(F)(F)F)C(=O)Nc1ccc(Oc2ccccc2F)cn1` [Compound E122] here?
Its IC50 is 3.8 nM.

How did the IC50 turn out when `CCN(C[C@@H](O)C(F)(F)F)C(=O)Nc1ccc(Oc2cc(F)ccc2F)cn1` [Compound E123] was run?
The IC50 was 3.39 nM.

Which IC50 does the source give for `CC1(C)CN(C(=O)Nc2ccc(Oc3ccc(F)c(F)c3)cn2)C1` [Compound E124] here?
Its IC50 is 3240 nM.

For `CC1(C)CCN1C(=O)Nc1ccc(Oc2ccc(F)c(F)c2)cn1` [Compound E125], which IC50 is on record?
The IC50 was 468 nM.

With `CCN(C[C@@H](O)C(F)(F)F)C(=O)Nc1ccc(Oc2cc(C#N)ccc2F)cn1` [Compound E126] as the compound, how does the IC50 read?
The IC50 was 7760 nM.

With `CCN(CC(O)C(F)(F)F)C(=O)Nc1ccc(Oc2cccc(F)c2)cn1` (centres unmarked) [Compound E127] as the compound, how does the IC50 read?
The IC50 was 15.8 nM.

For `CCN(C[C@@H](O)C(F)(F)F)C(=O)Nc1ccc(Oc2cccc(F)c2C#N)cn1` [Compound E128], which IC50 is on record?
Its IC50 is 120 nM.

With `CCN(C[C@@H](O)C(F)(F)F)C(=O)Nc1ccc(Oc2cc(F)ccc2C#N)cn1` [Compound E129] as the compound, how does the IC50 read?
The IC50 was 1950 nM.

For `O=C(Nc1ccc(Oc2cc(F)cc(F)c2)cn1)N1CC[C@@H](CO)C1` [Compound E130], which IC50 is on record?
Its IC50 is 7080 nM.

`O=C(NCC(O)C(F)(F)F)Nc1ccc(Oc2cc(F)cc(F)c2)cn1` (centres unmarked) [Compound E131] was tested. Which IC50 did it give?
The IC50 was 1000 nM.

With `O=C(Nc1ccc(Oc2cc(F)cc(F)c2)cn1)N1CCC[C@@H]1CO` [Compound E132] as the compound, how does the IC50 read?
The IC50 was 575 nM.

How did the IC50 turn out when `O=C(Nc1ccc(Oc2cc(F)cc(F)c2)cn1)N1CC[C@H](CO)C1` [Compound E133] was run?
The IC50 was 6170 nM.

Which IC50 does the source give for `CCN(C[C@@H](O)C(F)(F)F)C(=O)Nc1ccc(Oc2cccc(C#N)c2F)cn1` [Compound E134] here?
Its IC50 is 468 nM.

`CCN(C[C@@H](O)C(F)(F)F)C(=O)Nc1ccc(Oc2c(F)cccc2F)cn1` [Compound E135] was tested. Which IC50 did it give?
Its IC50 is 8.13 nM.

Which IC50 does the source give for `CCN(C[C@@H](O)C(F)(F)F)C(=O)Nc1ccc(Oc2c(F)cccc2C#N)cn1` [Compound E136] here?
The IC50 was 158 nM.

`CCN(C[C@@H](O)C(F)(F)F)C(=O)Nc1ccc(Oc2ccc(F)cc2F)cn1` [Compound E137] was tested. Which IC50 did it give?
Its IC50 is 2.09 nM.

`CCN(C[C@@H](O)C(F)(F)F)C(=O)Nc1ccc(OCc2cccc(F)c2)cn1` [Compound E138] was tested. Which IC50 did it give?
Its IC50 is 871 nM.

For `CN(C[C@@](C)(O)C(F)(F)F)C(=O)Nc1ccc(Oc2ccc(F)c(F)c2)cn1` [Compound E139, 3-[5-(3,4-difluorophenoxy)-2-pyridyl]-1-methyl-1-[(2R)-3,3,3-trifluoro-2-hydroxy-2-methyl-propyl]urea], which IC50 is on record?
Its IC50 is 15.1 nM.

How did the IC50 turn out when `CN(C[C@@](C)(O)C(F)(F)F)C(=O)Nc1ccc(Oc2cc(F)cc(F)c2)cn1` [Compound E140, 3-[5-(3,5-difluorophenoxy)-2-pyridyl]-1-methyl-1-[(2R)-3,3,3-trifluoro-2-hydroxy-2-methyl-propyl]urea] was run?
The IC50 was 1.58 nM.

With `CN(C[C@@](C)(O)C(F)(F)F)C(=O)Nc1ccc(Oc2ccc(F)cc2F)cn1` [Compound E141, 3-[5-(2,4-difluorophenoxy)-2-pyridyl]-1-methyl-1-[(2R)-3,3,3-trifluoro-2-hydroxy-2-methyl-propyl]urea] as the compound, how does the IC50 read?
The IC50 was 2.04 nM.

Which IC50 does the source give for `CCN(C[C@@H](O)C(F)(F)F)C(=O)Nc1ccc(-n2cccn2)cn1` [Compound E142, 1-ethyl-3-(5-pyrazol-1-yl-2-pyridyl)-1-[(2R)-3,3,3-trifluoro-2-hydroxy-propyl]urea] here?
Its IC50 is 8710 nM.

How did the IC50 turn out when `CC(C)C(=O)Nc1cc(Oc2cc(F)cc(F)c2)ccn1` [Compound E143, N-[4-(3,5-difluorophenoxy)-2-pyridyl]-2-methyl-propanamide] was run?
Its IC50 is 200 nM.

`O=C(Nc1cc(Oc2cc(F)cc(F)c2)ccn1)C1CC1` [Compound E144, N-[4-(3,5-difluorophenoxy)-2-pyridyl]cyclopropanecarboxamide] was tested. Which IC50 did it give?
Its IC50 is 1000 nM.

With `CC(C)C(=O)Nc1cc(Oc2ccccc2)ccn1` [Compound E145, 2-methyl-N-(4-phenoxy-2-pyridyl)propanamide] as the compound, how does the IC50 read?
The IC50 was 794 nM.
